Reference: PMC12175168, “Refining the Amino Reactivity-Based Identification of Respiratory Sensitizers” (Chemical Research in Toxicology, 2025)
Values joined by “and” are separate entries in the source; they are usually repeats but may differ in a detail not shown here. Identical values can stand only once. “Also recorded” adds a separate entry of the source. Like-named read-outs stand apart in the source and are kept apart here. Marks after values point to notes of the source that are not given here.

What was measured:
[1] = Kinetic Gly-pNA chemoassay (second-order rate constant k Gly); conditions: reaction with Gly-pNA, nominal test compound concentration; for k Gly ± s(k Gly), second-order rate constant: phosphate buffer 80 mM, 25 °C, ≥ values are minimum reactivity; for log k Gly: phosphate buffer;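 on all read-outs here: Gly-pNA depletion followed over time by chromatographic peak area, with test compound in at least tenfold excess (pseudo-first-order), added from acetonitrile stock, at least three runs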
Description: The reactivity of the 27 test compounds toward Gly-pNA was quantified in terms of the second-order reaction rate constant k Gly using our Gly-pNA chemoassay. , In brief, stock solutions of the test compound were freshly obtained every day by gravimetrically adding the required amount into a 10 mL volumetric flask, which was subsequently filled to volume with acetonitrile (ACN). The required amounts of test compounds depended on their reactivity toward Gly-pNA. […] As usual for kinetic studies, fast reacting chemicals are applied at lower concentrations than little reactive candidates. All stock solutions were stored at 25 °C in a climate chamber before first use (ca. 30 min) and for repeating an experiment (max. 6 h). Gly-pNA stock solution (1.69 mM) was obtained by dissolving 3.3 mg Gly-pNA in 10 mL phosphate buffer solution (80 mM) and could be used for several weeks if stored at 4 °C. For all chemoassay experiments, 1.8 mL glass vials were used as reaction batches, which were initially filled with 1070 μL phosphate buffer (80 mM) and 30 μL Gly-pNA stock solution. To start the reaction, 400 μL of the test compound stock solutions was added. […] The time between the start of the reaction and the first analysis was measured with an electronic time clock. All reactions were performed under pseudo-1st order conditions with the electrophile being at least ten times in excess over Gly-pNA.
For these compounds, the minimum reactivity was estimated in terms of k Gly by plotting ln (A Gly ^ t /A Gly ^0) vs reaction time t (with A Gly ^ t and A Gly ^0 being the peak areas under the chromatographic signal for Gly-pNA at time t and at the beginning of the reaction (t = 0)). Linear regression through 0 (at t = 0) and the first measurement point yields slope s (see Figure S1) which is the pseudo-1st order rate constant k Gly ^pseudo that can be converted with the initial test compound concentration in the reactions mixture (c) into k Gly according to eq . 1 kGly=kGlypseudo/c
2 Ln(AGlyt/AGly0)≈−kGly·c·t+0.5·kGly·kloss·c·t^2 Here k loss is the first order rate constant covering all processes contributing to the loss of the test compounds, except the reaction with Gly-pNA. The regression parameter of the linear part of eq (= k Gly·c) is the pseudo-1st order rate constant k Gly ^pseudo and can be converted into k Gly according to eq (see above).
Linear regression of these plots provides slope s, which is again the pseudo-1st order rate constant, k Gly ^pseudo, and can be used to calculate k Gly according to eq . All experiments to determine k Gly have been conducted at least three times.

[2] = DPRA-like chemoassay with Gly-pNA (24 h percent depletion); conditions: PPB pH 7.4, 24 h, 25 °C, 50-fold excess of test compound
Description: (§1) In addition to the kinetic Gly-pNA chemoassay, the reactivity of the 27 compounds toward Gly-pNA and Lys-pNA was determined in terms of percentage depletions after reacting for 24 h at 25 °C employing the following DPRA-like setup: stock solutions for the test compounds were prepared by gravimetrically adding at least 3 mg of the respective compound into a glass vial (total volume 1.8 mL) and subsequent addition of 1 mL ACN. […] The stock solutions for Gly-pNA and Lys-pNA with a final concentration of 1.7 mM were prepared by dissolving the required amount in one of the three aqueous buffer solutions used for this DPRA-like chemoassay: phosphate buffer (80 mM, pH 7.4), phosphate buffer (80 mM, pH 10.2), and ammonium acetate buffer (100 mM, pH 10.2). Glass vials (1.8 mL) were used as reaction vessels.
(§2) In the final reaction mixtures, the concentration of Gly-pNA or Lys-pNA was 0.03 mM, and the test compound was 50 times in excess (1.5 mM). After incubation for 24 h at 25 °C, the free amount of either Gly-pNA or Lys-pNA was determined using the HPLC UV–vis method described for the kinetic Gly-pNA chemoassay. , The percentage depletion of Gly-pNA (D Gly) or Lys-pNA (D Lys) was determined directly from peak areas according to eq 3 Dx[%]=(Axcontrol−Ax/Axcontrol×100)withx=GlyorLys
(§3) In eq , A x and A x ^control are the peak areas of the chromatographic signal of either Gly-pNA (x = Gly) or Lys-pNA (x = Lys) at 315 nm after 24 h incubation with and without test compound, respectively.
(§4) Summary of experimental conditions of the DPRA-like setups used to determine
(§5) DGly, D Lys, and D DPRA data in Table 2 (main text).
(§6) Table S2. Overview of experimental conditions for the DPRA-like setups used to
(§7) determine 24 h percentage depletion rates for the reaction of the test compounds with
(§8) Gly-pNA, Lys-pNA, and the DPRA lysine peptide (literature data).

[3] = DPRA-like chemoassay with Lys-pNA (24 h percent depletion); conditions: 25 °C, 50-fold excess of test compound
Description: as §1, §2, §3, §4, §5, §6, §7, §8

[4] = ref Krutz et al., Sadekar et al., Ponder et al., Karol et al., Hopkins et al.; cited from earlier work
[5] = Stability assessment of test compounds in aqueous buffers (half-lives)
Description: To this end, the test compound was dissolved in 1 mL ACN in a glass vial. […] As reaction batches, 1.8 mL glass vials equipped with 400 μL glass inserts were used and filled with 220 μL of the respective aqueous buffer and 80 μL of the test compound stock solution. The depletion of the test compounds was recorded with the HPLC UV–vis instrument used for the kinetic Gly-pNA chemoassay. , Chromatographic separation of the reaction mixture was achieved using the gradient described for the Gly-pNA chemoassay previously , and an isocratic HPLC method (water/ACN 70:30, both with 0.1 vol % formic acid). The wavelengths used for the detection of the compound and the information on the used chromatographic method are given in the Supporting Information in Table S3.

DPRA lysine peptide = test system: DPRA lysine peptide; set-up: method as in literature; conditions: AAB pH 10.2, 24 h; ref literature; cited from earlier work
[6] = set-up: method as in our previous work; conditions: reaction with Gly-pNA; ref our previous work; cited from earlier work
[7] = set-up: method as in our previous work; conditions: PPB pH 7.4, 24 h; ref our previous work; cited from earlier work
[8] = AAB (ammonium acetate buffer) pH 10.2, 24 h
[9] = aqueous ammonium acetate buffer with acetonitrile, pH 10.2
[10] = aqueous phosphate buffer with acetonitrile, pH 10.2
[11] = PPB (phosphate buffer 80 mM) pH 7.4
[12] = buffer, pH 10.2, half-lives t 1/2 ± s(t 1/2), AAP (ammonium acetate buffer 100 mM) pH 10.2
[13] = buffer, pH 10.2, half-lives t 1/2 ± s(t 1/2), PPB (phosphate buffer 80 mM) pH 10.2

Row | SMILES | k Gly ± s(k Gly), second-order rate constant [1] | log k Gly [1] | D Gly ± s(D Gly), 24 h percent depletion of Gly-pNA [2] | D Lys ± s(D Lys), 24 h percent depletion of Lys-pNA [3, 8] | D Lys ± s(D Lys), 24 h percent depletion of Lys-pNA ([3]; PPB pH 10.2, 24 h) | Classification as potential respiratory sensitizer or non-sensitizer [4] | half-life [5, 9] | half-life ([5]; aqueous phosphate buffer with acetonitrile, pH 7.4) | half-life [5, 10] | D DPRA ± s(D DPRA), depletion of the DPRA lysine peptide (DPRA lysine peptide) | half-lives t 1/2 ± s(t 1/2) ([5]; AAP (ammonium acetate buffer 100 mM) pH 10.2) | half-lives t 1/2 ± s(t 1/2) [5, 11] | half-lives t 1/2 ± s(t 1/2) ([5]; PPB (phosphate buffer 80 mM) pH 10.2) | half-life [5, 12] | half-life [5, 13] | k Gly ± s(k Gly), second-order rate constant [6] | log k Gly [6] | D Gly, 24 h percent depletion of Gly-pNA [7]
1 | O=C1OC(=O)C2CCCCC12 (stereo not drawn) [D1, hexahydrophthalic anhydride] | 2900 ± 110 L mol^–1 min^–1 | 3.46 | 100% | 12.5 ± 0.5% | 100% | potential respiratory sensitizer | < 0.0167 h | 0.0727 ± 0.006 h | 0.02 h | 56.4 ± 29.4% | – | – | – | – | – | – | – | –
2 | O=[N+]([O-])c1ccc(S(=O)(=O)O)c([N+](=O)[O-])c1 [E5, 2,4-dinitrobenzenesulfonic acid] | not reactive | – | 5.9% and 5.9 ± 0.3% | 0.9 ± 0.1% | 0% | non-sensitizer | – | – | – | 27.4% | did not show any significant signal depletion; also recorded: no depletion | no depletion | no depletion | – | – | – | – | –
3 | C=CC(=O)OC [F2, methyl acrylate] | 0.108 ± 0.005 L mol^–1 min^–1 | –0.97 | 16.6 ± 0.4% | 55.5 ± 0.7% | 67.9 ± 1.6% | non-sensitizer | – | – | – | 86.5 ± 5.2% | – | no depletion | – | 10.5 ± 0.8 h | 15.7 ± 1.05 h | – | – | –
4 | C=CC(=O)OCCCC [F3, butyl acrylate] | 0.0826 ± 0.0141 L mol^–1 min^–1 | –1.08 | 15.2 ± 0.2% | 61.3 ± 0.4% | 74.4 ± 1.5% | non-sensitizer | – | – | – | 87.8 ± 3.8% | – | no depletion | – | 15.5 ± 0.983 h | 70.8 ± 30 h | – | – | –
5 | C=CC(=O)OCC [F4, ethyl acrylate] | 0.0795 ± 0.0001 L mol^–1 min^–1 | – | 14.4 ± 0.6% | 55.8 ± 0.4% | 67.1 ± 1.4% | non-sensitizer | 14.7 ± 1.98 h | – | 22.5 ± 2.87 h | 90.3 ± 6.6% | – | no depletion | – | – | – | – | – | –
6 | O=CCCCC=O [G1, glutaraldehyde] | – | – | – | 7.2 ± 1.7% | 97.9 ± 0.6% | – | – | – | – | 82.8 ± 7.6% | – | – | – | – | – | 17731 ± 2525 L mol^–1 min^–1 | 4.25 | 100 ^c %
